The text below walks through data of publication PMC10354740 (Journal of medicinal chemistry, 2022).

Molecules are shown by their SMILES. In brackets after ≈: the same amount, converted by molar mass. Where two headings read alike, the source gives them in different places.

One data set deals with T1, hA1 AR (Homo sapiens, UniProt P30542).
T1 sequence (P30542 1-326): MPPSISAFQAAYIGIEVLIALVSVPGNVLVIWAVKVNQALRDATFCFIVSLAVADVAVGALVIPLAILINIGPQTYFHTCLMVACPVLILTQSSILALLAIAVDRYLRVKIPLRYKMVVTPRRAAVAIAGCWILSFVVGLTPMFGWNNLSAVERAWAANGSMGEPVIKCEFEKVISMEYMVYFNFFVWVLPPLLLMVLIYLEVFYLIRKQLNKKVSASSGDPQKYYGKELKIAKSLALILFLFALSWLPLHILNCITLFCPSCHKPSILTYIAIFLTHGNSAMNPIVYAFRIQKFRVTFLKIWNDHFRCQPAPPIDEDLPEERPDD
The data set is described as follows: Orthosteric antagonist radioligand binding. As to conditions: concentrations as high as 10 μM.

A further data set addresses T2, hA2B AR (Homo sapiens, UniProt P29275).
T2 sequence (P29275 1-332): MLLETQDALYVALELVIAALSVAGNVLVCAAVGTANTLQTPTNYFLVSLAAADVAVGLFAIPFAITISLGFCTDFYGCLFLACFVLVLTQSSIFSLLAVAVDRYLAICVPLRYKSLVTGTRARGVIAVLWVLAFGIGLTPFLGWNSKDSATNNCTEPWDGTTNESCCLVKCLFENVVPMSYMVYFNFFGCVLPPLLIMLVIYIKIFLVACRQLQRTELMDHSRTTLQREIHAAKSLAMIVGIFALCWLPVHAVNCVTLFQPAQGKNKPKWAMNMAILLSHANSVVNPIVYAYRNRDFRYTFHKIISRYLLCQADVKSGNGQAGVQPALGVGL
The data set is described as follows: Orthosteric antagonist radioligand binding. As to conditions: concentrations as high as 10 μM.

Another data set deals with hA2A AR (Homo sapiens, UniProt P29274). Description: Orthosteric antagonist radioligand binding. As to conditions: concentrations as high as 10 μM.
hA2A AR, sequence (P29274 whole entry): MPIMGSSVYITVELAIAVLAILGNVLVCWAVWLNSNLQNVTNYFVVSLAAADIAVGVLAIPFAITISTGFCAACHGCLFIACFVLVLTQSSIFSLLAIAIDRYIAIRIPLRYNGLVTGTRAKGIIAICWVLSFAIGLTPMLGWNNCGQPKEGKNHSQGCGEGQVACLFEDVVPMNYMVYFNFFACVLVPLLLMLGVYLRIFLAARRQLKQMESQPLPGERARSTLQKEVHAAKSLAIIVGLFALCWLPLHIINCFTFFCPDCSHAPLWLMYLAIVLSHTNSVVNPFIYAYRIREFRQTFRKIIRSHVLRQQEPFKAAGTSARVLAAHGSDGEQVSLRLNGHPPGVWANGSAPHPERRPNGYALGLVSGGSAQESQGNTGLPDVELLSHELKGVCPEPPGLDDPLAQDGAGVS
The target in data set [1] is T3, hA3AR (Homo sapiens, UniProt P0DMS8).
T3 sequence (P0DMS8 1-318): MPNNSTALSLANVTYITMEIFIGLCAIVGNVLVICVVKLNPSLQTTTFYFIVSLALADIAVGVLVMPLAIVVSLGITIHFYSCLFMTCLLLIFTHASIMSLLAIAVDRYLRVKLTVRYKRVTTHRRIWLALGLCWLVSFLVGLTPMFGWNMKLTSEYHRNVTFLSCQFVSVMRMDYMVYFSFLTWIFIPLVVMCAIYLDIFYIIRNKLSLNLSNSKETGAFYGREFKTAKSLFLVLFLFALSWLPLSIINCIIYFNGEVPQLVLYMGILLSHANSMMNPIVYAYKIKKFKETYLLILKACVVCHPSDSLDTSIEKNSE
As to conditions: modulator 0.1 μM; cited from earlier work.

The nature of data set [2]: Plasma protein binding, human. As to conditions: pH 7.4.
Data set [3] in a line: pION aqueous solubility pH 7.4. In kind it is physicochemical. As to conditions: pION buffer.
The subject of a further data set is Caco-2 cells. Description: Caco-2 cell permeability assay. In kind it is in vitro ADME, human.
A short description of data set [4]: Pharmacokinetics in fasted Wistar rats. In kind it is in vivo. As to conditions: rat.
The target in data set [5] is T3, hA3AR. As to conditions: for enhancement of agonist efficacy at 0.1 μM: modulator 0.1 μM; for effect on agonist 52 potency: modulator 1 μM (30–34: 0.1 and 1.0 μM), compared to control.
Another data set deals with CYP2C9 (Homo sapiens, UniProt P11712). Description: CYP inhibition.
CYP2C9, sequence (P11712 whole entry): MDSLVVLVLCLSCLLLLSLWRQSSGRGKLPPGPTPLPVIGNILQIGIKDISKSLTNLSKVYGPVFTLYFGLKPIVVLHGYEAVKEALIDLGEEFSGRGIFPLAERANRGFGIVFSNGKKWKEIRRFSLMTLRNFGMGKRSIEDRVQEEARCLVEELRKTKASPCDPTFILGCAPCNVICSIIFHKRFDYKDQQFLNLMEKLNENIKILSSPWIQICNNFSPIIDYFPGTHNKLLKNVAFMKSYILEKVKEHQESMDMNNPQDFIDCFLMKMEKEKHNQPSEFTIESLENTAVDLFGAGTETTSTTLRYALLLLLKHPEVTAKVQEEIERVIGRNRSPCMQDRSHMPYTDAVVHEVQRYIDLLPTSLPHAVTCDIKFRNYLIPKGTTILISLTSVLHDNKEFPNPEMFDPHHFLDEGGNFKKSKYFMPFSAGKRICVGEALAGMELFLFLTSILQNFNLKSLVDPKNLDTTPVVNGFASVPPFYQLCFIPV
Data set [6] addresses T3, hA3AR. As to conditions: modulator 10 μM; 100 μM 51 added; control 26%.

On to `Clc1ccc(Nc2nc3ccccc3c3[nH]c(C4CC4)nc23)cc1Cl` [Compound 17, 2-(Cyclopropyl)-N-(3,4-dichlorophenyl)-1H-imidazo[4,5-c]quinolin-4-amine], for which the “inhibition of orthosteric antagonist binding at hA1 AR” value at hA1 AR is on record as “did not inhibit orthosteric antagonist binding”. Moreover, the “inhibition of orthosteric antagonist binding at hA2B AR” value at hA2B AR is “did not inhibit orthosteric antagonist binding”. On hA2A AR, the “inhibition of orthosteric antagonist binding at hA2A AR” value is recorded as “did not inhibit orthosteric antagonist binding”.
With `Clc1ccc(Nc2nc3ccccc3c3nc(C4CCCCC4)[nH]c23)cc1Cl` [Compound 7, N-(3,4-dichloro-phenyl)-2-cyclohexyl-1H-imidazo[4,5-c]quinolin-4-amine], the “enhancement of agonist efficacy at 0.1 μM” value (from here on “enhancement”) at hA3AR [1] is given as “significantly enhanced agonist efficacy”.
In the case of `CC(=O)CC(c1ccccc1)c1c(O)c2ccccc2oc1=O` (centres unmarked) [Warfarin], the fraction unbound at 5 h, 10 μM in data set [2] came to 0.037.
`Clc1ccc(Nc2nc3ccccc3c3[nH]c(C4CCC=CCC4)nc23)cc1Cl` [Compound 18, 2-(Cyclohept-4-en-1-yl)-N-(3,4-dichlorophenyl)-1H-imidazo[4,5-c]quinolin-4-amine] showed a solubility at 18 h in [3] of 0.92 µM (≈ 0.389 µg/mL). The “Caco-2 permeability (Papp) apical to basolateral (A to B)” value in the data set on Caco-2 cells (10 μM) was “no measurable permeability”. In addition, in the data set with Caco-2 cells (10 μM), the “Caco-2 permeability (Papp) basolateral to apical (B to A)” value is “no measurable permeability”. Further, in the data set on Caco-2 cells (A-B and B-A), the Caco-2 permeability classification result is “low A-B and B-A permeability”. Also, the highest level in data set [4] (male, Wistar (RccHan:WIST), plasma, po, 10 mg/kg) (Cmax) was 4.2 µM. Also, the entries for the “clearance rate from plasma” value in data set [4] (1 mg/kg p.o.), in data set [4] (3 mg/kg p.o.) and in [4] (10 mg/kg p.o.) were 7.45 mL/min/kg, 26.33 mL/min/kg and 16.2 mL/min/kg, respectively.
Regarding `Clc1ccc(Nc2nc3ccccc3c3[nH]c(C4CCCCCC4)nc23)cc1Cl` [Compound 8], at hA3AR [1], the “enhancement” value is “significantly enhanced agonist efficacy”.
In the case of `Clc1ccc(Nc2nc3ccccc3c3[nH]c(C45CC6CC(CC(C6)C4)C5)nc23)cc1Cl` [Compound 12b], the “enhancement” value on hA3AR [5] is on record as “significantly enhanced agonist efficacy”. In addition, the “fold increase of agonist efficacy” value on hA3AR [5] (modulator 1 μM) is on record as “approximately 2 fold”. Besides, on hA3AR [5] (modulator 1.0 μM, P = 0.058), the “fold improvement of agonist potency” value is reported as approximately 4 fold.
On to `Clc1ccc(Nc2nc3ccccc3c3[nH]c(C45CCC(CC4)C5)nc23)cc1Cl` [Compound 25, 2-(Bicyclo[2.2.1]heptan-1-yl)-N-(3,4-dichlorophenyl)-1H-imidazo[4,5-c]quinolin-4-amine], for which the “fold decrease in agonist potency compared to control” value at hA3AR [5] (modulator 1 μM, P = 0.0257) worked out at 4 fold.
`Clc1ccc(COC(Cn2ccnc2)c2ccc(Cl)cc2Cl)c(Cl)c1` (centres unmarked) [Miconazole]: the IC50 against CYP2C9 amounted to 380 nM. This counts as sub-micromolar.
For `Clc1ccc(Nc2nc3ccccc3c3[nH]c([C@@H]4C[C@@H]5CCC[C@@H](C5)C4)nc23)cc1Cl` [Compound 27, 2-((1R,3s,5S)-Bicyclo[3.3.1]nonan-3-yl)-N-(3,4-dichlorophenyl)-1H-imidazo[4,5-c]quinolin-4-amine], on hA3AR [5], the “enhancement” value is recorded as “significantly enhanced agonist efficacy”.
In the case of `FC(F)(F)[C@H]1CC[C@H](c2nc3c(Nc4ccc(Cl)c(Cl)c4)nc4ccccc4c3[nH]2)CC1` [Compound 16, 2-(4-(Trifluoromethyl)cyclohexyl)-N-(3,4-dichlorophenyl)-1H-imidazo[4,5-c]quinolin-4-amine], on hA3AR [5], the “enhancement” value is “significantly enhanced agonist efficacy” and the “effect on agonist 52 potency” value is listed as “did not influence agonist potency”.
Consider `Clc1ccc(Nc2nc3ccccc3c3[nH]c(C45CCCC(CCC4)C5)nc23)cc1Cl` [Compound 26, 2-(Bicyclo[3.3.1]nonan-1-yl)-N-(3,4-dichlorophenyl)-1H-imidazo[4,5-c]quinolin-4-amine], for which the “effect on agonist 52 potency” value at hA3AR [5] is on record as “neither 12b nor 26 significantly improved agonist potency”.
Take `FC(F)(F)CCC(CCC(F)(F)F)c1nc2c(Nc3ccc(Cl)c(Cl)c3)nc3ccccc3c2[nH]1` [Compound 15, 2-(1,1,1,7,7,7-Hexafluoroheptan-4-yl)-N-(3,4-dichlorophenyl)-1H-imidazo[4,5-c]quinolin-4-amine]: the “radioligand [125I]50 remaining bound 60 min after initiation of dissociation” value on hA3AR [6] was “did not slow agonist dissociation”. At hA3AR [5], the “effect on agonist 52 potency” value is “did not influence agonist potency”.
In the case of `Clc1ccc(Nc2nc3ccccc3c3[nH]c(C4CC5C=CC4CC5)nc23)cc1Cl` [Compound 29, 2-((1R,2R,4R)- and (1S,2S,4S))-Bicyclo[2.2.2]oct-5-en-2-yl)-N-(3,4-dichlorophenyl)-1H-imidazo[4,5-c]quinolin-4-amine], the “effect on agonist EC50 over modulator concentrations” value on hA3AR [5] (concentration-dependent) is reported as “significantly decreasing the potency in a concentration-dependent manner”. The “effect on agonist 52 potency” value at hA3AR [5] is reported as “did not influence agonist potency”.
As for `Clc1ccc(Nc2nc3ccccc3c3[nH]c([C@@H]4CC[C@@H]5C[C@@H]5CC4)nc23)cc1Cl` [Compound 28, 2-((1R,4r,7S)-bicyclo[5.1.0]octan-4-yl)-N-(3,4-dichlorophenyl)-1H-imidazo[4,5-c]quinolin-4-amine], the “radioligand [125I]50 remaining bound 60 min after initiation of dissociation” value on hA3AR [6] is on record as “slowed agonist radioligand dissociation”. Also, the “fold increase of agonist efficacy” value at hA3AR [5] (modulator 1 μM) was “approximately 2 fold”.
